# Test system: MSP1-19
# Experiment: Epitope mapping: displacement of human IgG from peptide pins on exposure to MSP1-19
# Parameters: species or system Plasmodium falciparum
# Conditions: change in human IgG binding to peptide pin after 1 h exposure to 50 mg/mL MSP1-19 at room temperature; normalised to no-peptide pins and control peptide GLAQG
# Protocol: A natural human IgG antibody library was tested for its ability to bind to peptides associated with the 19 kDa C-terminal region of merozoite surface protein 1 (MSP1-19) from Plasmodium falciparum (Kaslow et al., Mol. Biochem. Parasitology 63:283-289 (1994)). The 89 amino acid sequence from MSP1-19 was used for the epitope mapping experiment (see Table 1).
# Briefly, a library of pentamer peptides was synthesized on polypropylene pins following the procedures described by Geysen et al., Proc. Natl. Acad. Sci. USA 81:3998-4002 (1984). These peptides represented all five-amino-acid stretches of MSP1-19 offset by one residue (Table 1). Peptide pins were precoated in phosphate buffered saline (PBS), pH 7.2, containing 2% BSA and 0.1% TWEEN 20 for one hour at room temperature. Five successive washes of the pins were carried out for five minutes each with agitation in PBS. Human IgG (Calbiochem; San Diego Calif.) was complexed to the peptides by incubating 0.1 mg/mL IgG in PBS at 4° C. for 30 hours. Unbound antibody was removed by washing as described above in 10 mM TRIS, pH 7.4 buffer containing 150 mM NaCl (TBS) using new microtiter plates for transferring the pins for each of the five washings. Anti-human IgG (goat) alkaline phosphatase conjugate was diluted to 0.1 mg specific antibody/mL in TBS and incubated with the peptide/antibody complex for one hour at room temperature before washing five times with TBS, as described above. The pins were then incubated in assay solution containing 10 mM TRIS, pH 8.0, 150 mM NaCl, 0.5 mM MgCl2, and 0.1 mM 4-methylumbelliferyl-phosphate for 30 minutes at room temperature in the dark. Following incubation, the fluorescence intensity of the assay solution was measured in a Spectromax Gemini plate reader (Molecular Devices; Sunnyvale Calif.)(ex 358 nm/em 450 nm).
# The peptide/antibody complexes on the pins were washed five times in TBS, as described above, and incubated with 50 mg/mL MSP1-19 diluted in TBS for one hour at room temperature. The pins were washed in TBS as before and incubated in assay mixture for 30 minutes in the dark prior to measurement of the fluorescent intensity. Change in binding was determined using the equation: ΔF=(FMSP−Fb,MSP)/(F100,MSP−Fb,MSP)−(F0−Fb,0)/(F100,0−Fb,0) where FMSP and F0 are the fluorescence intensities of peptide containing pins after and before exposure to MSP1-19, respectively. Fb,MSP and Fb,0 are the fluorescence intensities of pins with no peptide after and before exposure to MSP1-19, respectively. F100,MSP and F100,0 are the fluorescence intensities of pins containing a control peptide, GLAQG (SEQ ID NO:90), after and prior to exposure to MSP1-19.
row,Substance,ΔF (%)
1,NPTCN [Peptide 46],<5
2,SNGKK [Peptide 69],<5
3,GGCDA [Peptide 54],<5
4,SGCFR [Peptide 16],<5
5,QHQCV [Peptide 4],<5
6,KITCE [Peptide 73],7
7,EREEC [Peptide 24],<5
8,YKQEG [Peptide 34],<5
9,EECKC [Peptide 26],<5
10,KCLLN [Peptide 29],<5
11,YPLFD [Peptide 84],12
12,CKCLL [Peptide 28],<5
13,CNENN [Peptide 49],16
14,TKPDS [Peptide 79],11
15,REECK [Peptide 25],<5
16,GSNGK [Peptide 68],<5
17,FRHLD [Peptide 19],<5
18,PNPTC [Peptide 45],<5
19,CVKKQ [Peptide 7],<5
20,ECTKP [Peptide 77],13
21,CLLNY [Peptide 30],<5
22,KQCPQ [Peptide 10],<5
23,KCVEN [Peptide 40],<5

row,Substance,ΔF (%)
1,EGDKC [Peptide 37],<5
2,KQEGD [Peptide 35],<5
3,QCVKK [Peptide 6],<5
4,GIFCS [Peptide 89],11
5,AKCTE [Peptide 60],5
6,ENPNP [Peptide 43],<5
7,DKCVE [Peptide 39],<5
8,LFDGI [Peptide 86],11
9,CDADA [Peptide 56],<5
10,ECKCL [Peptide 27],<5
11,QEGDK [Peptide 36],<5
12,EEDSG [Peptide 64],7
13,HLDER [Peptide 21],<5
14,RHLDE [Peptide 20],<5
15,DAKCT [Peptide 59],<5
16,KCTEE [Peptide 61],6
17,ITCEC [Peptide 74],5
18,EDSGS [Peptide 65],7
19,QCPQN [Peptide 11],<5
20,DADAK [Peptide 57],<5
21,PQNSG [Peptide 13],<5
22,VKKQC [Peptide 8],<5
23,ISQHQ [Peptide 2],<5

row,Substance,ΔF (%)
1,LNYKQ [Peptide 32],<5
2,TEEDS [Peptide 63],<5
3,NGKKI [Peptide 70],12
4,DGIFC [Peptide 88],7
5,NNGGC [Peptide 52],6
6,DEREE [Peptide 23],<5
7,PTCNE [Peptide 47],<5
8,NPNPT [Peptide 44],<5
9,HQCVK [Peptide 5],<5
10,NSGCF [Peptide 15],<5
11,PDSYP [Peptide 81],9
12,GCDAD [Peptide 55],7
13,TCNEN [Peptide 48],<5
14,GDKCV [Peptide 38],<5
15,CFRHL [Peptide 18],<5
16,NGGCD [Peptide 53],10
17,ENNGG [Peptide 51],<5
18,NYKQE [Peptide 33],<5
19,PLFDG [Peptide 85],16
20,NENNG [Peptide 50],5
21,FDGIF [Peptide 87],9
22,SQHQC [Peptide 3],<5
23,LDERE [Peptide 22],<5

row,Substance,ΔF (%)
1,GCFRH [Peptide 17],<5
2,DSYPL [Peptide 82],9
3,KKQCP [Peptide 9],<5
4,CECTK [Peptide 76],<5
5,CTEED [Peptide 62],<5
6,CTKPD [Peptide 78],10
7,QNSGC [Peptide 14],<5
8,GKKIT [Peptide 71],6
9,LLNYK [Peptide 31],<5
10,TCECT [Peptide 75],12
11,DSGSN [Peptide 66],9
12,SGSNG [Peptide 67],<5
13,NISQH [Peptide 1],<5
14,ADAKC [Peptide 58],<5
15,KKITC [Peptide 72],9
16,VENPN [Peptide 42],<5
17,CVENP [Peptide 41],<5
18,KPDSY [Peptide 80],11
19,SYPLF [Peptide 83],13
20,CPQNS [Peptide 12],<5
